According to patent US8273775B2, “Non-steroidal brassinosteroid mimetic” (priority 2006, dated 2012):

Test system: gene expression in Col-0 seedling shoots
Test: Microarray analysis (ATH1 Affymetrix) after BL or abrasin treatment
Type: in vivo, Arabidopsis
Experimental: FIG. 14: Clustering of gene expression profiles by QT-clust analysis. Clusters illustrating the major patterns of the data sets. Points: BIK-30: 30 μM abrasin 30 min; BL-30: 1 μM brassinolide 30 min; DMSO-30: control DMSO 30 min; BIK-120: 30 μM abrasin 120 min; BL-120: 1 μM brassinolide 120 min; DMSO-120: control DMSO 120 min.
Col-0 seeds were germinated vertically on ½ MS medium for 7 days under 16 h light/8 h dark cycles. The seedlings were overlaid with liquid ½ MS medium containing 1 μM brassinolide (BL, Fuji Chemical Industries, Ltd., Toyama, Japan), 30 μM abrasin (BIK, ChemBridge Corporation) and DMSO and treated for 30 and 120 min. The shoot parts were collected for RNA isolation. All sampling points were performed in three independent experiments. RNA was extracted using RNeasy kit (Qiagene). […] total RNA per array was used to hybridise the ATH1 Affymetrix Arabidopsis arrays according to standard procedure. The overrepresentation analyses were performed using BiNGO software (Maere et al., 2005).
We performed a microarray analysis using the Arabidopsis whole genome chip (Affymetix) to determine whether abrasin activated the expression of BR-inducible genes at transcriptional level. Wild-type Col-0 seedlings were exposed to 1 μM BL, 30 μM ABRASIN and DMSO (mock-treatment) for two time points (30 min and 120 min) and the shoot parts were collected for RNA isolation. The analysis of the variance of the normalized gene expression data took in account the variability parameters affecting the expression level: type of hormone treatment, duration of treatment and the interaction between these two.

CC(C)[C@H](C)[C@@H](O)[C@H](O)[C@@H](C)[C@H]1CC[C@H]2[C@@H]3COC(=O)[C@H]4C[C@H](O)[C@H](O)C[C@]4(C)[C@H]3CC[C@]12C [BL, brassinolide, reference compound]
expression of BR biosynthesis genes (CPD, DWF4, BR6OX2), Cluster 1 (1 μM BL, 30 μM ABRASIN): down-regulated
expression of genes involved in the auxin pathway (IAA29, IAA2) (1 μM BL, 30 μM ABRASIN): significantly down-regulated
induction of early auxin-inducible SAUR family genes, Cluster 3 (1 μM BL, 30 μM ABRASIN, 30 and 120 min): induced by BL as faster as 30 min treatment
Fold-change AT1G04330 expressed protein (30 min): 1.04
Fold-change AT1G05470 endonuclease/exonuclease/phosphatase family protein (30 min): 1.04
Fold-change AT1G06520 Encodes a membrane associated mitochondrial localized protein (30 min): 1.57
Fold-change AT1G06570 4-hydroxyphenylpyruvate dioxygenase (HPD) (30 min): 0.87
Fold-change AT1G10550 xyloglucan:xyloglucosyl transferase (30 min): 1.34
Fold-change AT1G12710 F-box family protein (30 min): 1.26
Fold-change AT1G12750 rhomboid family protein (30 min): 1.15
Fold-change AT1G14130 2-oxoglutarate-dependent dioxygenase (30 min): 1.26
Fold-change AT1G14700 purple acid phosphatase (30 min): 0.73
Fold-change AT1G16640 transcriptional factor B3 family protein (30 min): 1.02
Fold-change AT1G17230 leucine-rich repeat family protein (30 min): 1.08
Fold-change AT1G18020; AT1G17990 [AT1G18020, 12-oxophytodienoate reductase, (30 min): 0.80
Fold-change AT1G19320 pathogenesis-related thaumatin family protein (30 min): 0.81
Fold-change AT1G20350 mitochondrial import inner membrane translocase subunit (30 min): 0.99
Fold-change AT1G21050 expressed protein (30 min): 0.72
Fold-change AT1G21760 F-box family protein (30 min): 1.02
Fold-change AT1G22360 UDP-glucoronosyl/UDP-glucosyl transferase family protein (30 min): 0.94
Fold-change AT1G23080 auxin efflux carrier protein (PIN7) (30 min): 0.89
Fold-change AT1G26800 zinc finger (C3HC4-type RING finger) family protein, (30 min): 1.51
Fold-change AT1G27730 zinc finger (C2H2 type) family protein (30 min): 0.18
Fold-change AT1G28130 encodes an IAA-amido synthase (30 min): 0.85
Fold-change AT1G28190 expressed protein (30 min): 0.66
Fold-change AT1G28480 glutaredoxin family protein (30 min): 0.99
Fold-change AT1G31040 zinc-binding protein-related (30 min): 0.88
Fold-change AT1G31310 hydroxyproline-rich glycoprotein family protein (30 min): 0.85
Fold-change AT1G31770 ABC transporter family protein (30 min): 0.99
Fold-change AT1G32190 expressed protein (30 min): 1.00
Fold-change AT1G32690 expressed protein (30 min): 0.92
Fold-change AT1G36940 expressed protein (30 min): 0.89
Fold-change AT1G49780 U-box domain-containing protein (30 min): 0.53
Fold-change AT1G53870; AT1G53890 [AT1G53870, expressed protein (30 min): 0.89
Fold-change AT1G54050 17.4 kDa class III heat shock protein (HSP17.4-CIII) (30 min): 1.09
Fold-change AT1G54200 expressed protein (30 min): 1.16
Fold-change AT1G55920 serine O-acetyltransferase (30 min): 1.04
Fold-change AT1G57560 myb family transcription factor (MYB50) (30 min): 1.04
Fold-change AT1G59590 expressed protein (30 min): 0.95
Fold-change AT1G59660 nucleoporin family proteinmily (30 min): 1.67
Fold-change AT1G62300 WRKY family transcription factor (30 min): 0.63
Fold-change AT1G63050 membrane bound O-acyl transferase (MBOAT) family protein (30 min): 0.98
Fold-change AT1G66160 U-box domain-containing protein, (30 min): 1.10
Fold-change AT1G66890 expressed protein (30 min): 0.72
Fold-change AT1G68330 expressed protein (30 min): 0.90
Fold-change AT1G68810 basic helix-loop-helix (bHLH) family protein (30 min): 1.11
Fold-change AT1G69160 expressed protein (30 min): 1.06
Fold-change AT1G70990 proline-rich family protein (30 min): 1.59
Fold-change AT1G71030 Encodes a putative myb family transcription factor (30 min): 0.84
Fold-change AT1G72060 expressed protein (30 min): 0.96
Fold-change AT1G72180 leucine-rich repeat transmembrane protein kinase (30 min): 0.87
Fold-change AT1G72800 nuM1-related, contains (30 min): 1.08
Fold-change AT1G75270 dehydroascorbate reductase (30 min): 1.27
Fold-change AT1G75500 nodulin MtN21 family protein (30 min): 0.91
Fold-change AT1G76240 expressed protein, (30 min): 0.57
Fold-change AT1G76410 zinc finger (C3HC4-type RING finger) (30 min): 1.61
Fold-change AT1G79110 expressed protein (30 min): 1.09
Fold-change AT1G79630 protein phosphatase 2C family protein (30 min): 0.78
Fold-change AT1G80440 kelch repeat-containing F-box family protein (30 min): 1.71
Fold-change AT2G01300 expressed protein (30 min): 1.16
Fold-change AT2G01990 expressed protein, (30 min): 0.91
Fold-change AT2G04240 zinc finger (C3HC4-type RING finger) family protein (30 min): 1.46
Fold-change AT2G05540 glycine-rich protein (30 min): 0.92
Fold-change AT2G12290; AT4G19700 [AT2G12290, expressed protein]; [AT4G19700, expressed protein] (30 min): 0.80
Fold-change AT2G18010 auxin-responsive family protein (SAUR10) (30 min): 1.60
Fold-change AT2G19800 expressed protein (30 min): 1.20
Fold-change AT2G22860 phytosulfokines 2 (PSK2) (30 min): 0.86
Fold-change AT2G23180 cytochrome P450, putative (30 min): 1.10
Fold-change AT2G23320 WRKY family transcription factor (30 min): 0.86
Fold-change AT2G26530 expressed protein (30 min): 0.41
Fold-change AT2G26710 cytochrome p450 family (BAS1) (30 min): 1.56
Fold-change AT2G28510 Dof-type zinc finger domain-containing protein (30 min): 0.94
Fold-change AT2G29340 short-chain dehydrogenase/reductase (SDR) family protein (30 min): 0.85
Fold-change AT2G29990 pyridine nucleotide-disulphide oxidoreductase family protein (30 min): 0.94
Fold-change AT2G30070 potassium transporter (KUP1) (30 min): 0.81
Fold-change AT2G31230 encodes a member of the ERF (ethylene response factor) (30 min): 1.66
Fold-change AT2G34650 protein kinase PINOID (PID) (30 min): 1.54
Fold-change AT2G36220 expressed protein (30 min): 1.18
Fold-change AT2G37590 Dof-type zinc finger domain-containing protein (30 min): 0.90
Fold-change AT2G38470 WRKY family transcription factor (30 min): 0.38
Fold-change AT2G39710 aspartyl protease family protein (30 min): 1.25
Fold-change AT2G40340; AT2G40350 [AT2G40340, encodes a member of the DREB subfamily A-2 of ERF/AP2 (30 min): 1.16
Fold-change AT2G41250 haloacid dehalogenase-like hydrolase family protein (30 min): 0.91
Fold-change AT2G41640 expressed protein (30 min): 0.84
Fold-change AT2G42280 basic helix-loop-helix (bHLH) family protein (30 min): 0.98
Fold-change AT2G43060 expressed protein, similar to cDNA bHLH transcription factor (30 min): 0.25
Fold-change AT2G43280 far-red impaired responsive family protein (30 min): 0.84
Fold-change AT2G43290 calmodulin-like protein (MSS3) (30 min): 1.24
Fold-change AT2G44130 kelch repeat-containing F-box family protein (30 min): 1.63
Fold-change AT2G44500 expressed protein (30 min): 1.16
Fold-change AT2G45210 auxin-responsive protein-related (30 min): 0.77
Fold-change AT2G45680 TCP family transcription factor (30 min): 0.91
Fold-change AT2G46225 Encodes a subunit of the WAVE complex (30 min): 0.97
Fold-change AT2G47440 DNAJ heat shock N-terminal domain-containing protein (30 min): 1.31
Fold-change AT3G04210 disease resistance protein (TIR-NBS class), putative, (30 min): 0.89
Fold-change AT3G09920 phosphatidylinositol-4-phosphate 5-kinase family protein (30 min): 0.94
Fold-change AT3G12920 expressed protein (30 min): 0.81
Fold-change AT3G13040 myb family transcription factor (30 min): 0.84
Fold-change AT3G13510 expressed protein (30 min): 1.06
Fold-change AT3G13980 expressed protein (30 min): 0.71
Fold-change AT3G14370 protein kinase family protein (30 min): 2.13
Fold-change AT3G14560 expressed protein (30 min): 0.81
Fold-change AT3G16570 rapid alkalinization factor (RALF) family protein (30 min): 0.88
Fold-change AT3G17860 expressed protein (30 min): 1.08
Fold-change AT3G18830 polyol/cyclitol/monosaccharide-H+-symporte (30 min): 1.11
Fold-change AT3G19380 U-box domain-containing protein (30 min): 0.70
Fold-change AT3G23030 auxin-responsive protein/indoleacetic acid-induced protein 2 (IAA2) (30 min): 0.66
Fold-change AT3G23550 MATE efflux family protein (30 min): 0.84
Fold-change AT3G25710 basic helix-loop-helix (bHLH) family protein (30 min): 1.06
Fold-change AT3G25900 homocysteine S-methyltransferase 1 (HMT-1) (30 min): 1.17
Fold-change AT3G26910 hydroxyproline-rich glycoprotein family protein (30 min): 1.08
Fold-change AT3G30180 cytochrome p450 enzyme (30 min): 0.31
Fold-change AT3G46880 expressed protein, (30 min): 0.84
Fold-change AT3G47800 aldose 1-epimerase family protein (30 min): 1.06
Fold-change AT3G48970 copper-binding family protein (30 min): 0.97
Fold-change AT3G49810 U-box domain-containing protein (30 min): 0.89
Fold-change AT3G50650 scarecrow-like transcription factor 7 (SCL7) (30 min): 1.17
Fold-change AT3G50660 steroid 22-alpha-hydroxylase (CYP90B1) (DWF4) (30 min): 0.47
Fold-change AT3G50750 brassinosteroid signalling positive regulator-related (BEH1) (30 min): 0.99
Fold-change AT3G52490 heat shock protein-related (30 min): 0.93
Fold-change AT3G53810 lectin protein kinase (30 min): 0.80
Fold-change AT3G54950 patatin-related, (30 min): 0.86
Fold-change AT3G55120 chalcone-flavanone isomerase (30 min): 0.98
Fold-change AT3G55150 exocyst subunit EXO70 family protein (30 min): 0.75
Fold-change AT3G55840 expressed protein (30 min): 1.06
Fold-change AT3G61460 zinc finger (C3HC4-type RING finger) family protein (BRH1) (30 min): 0.78
Fold-change AT3G63300 expressed protein (30 min): 1.02
Fold-change AT4G01680 myb family transcription factor (MYB55) (30 min): 0.51
Fold-change AT4G02410 lectin protein kinase family protein (30 min): 0.66
Fold-change AT4G08040 1-aminocyclopropane-1-carboxylate synthase, putative (30 min): 0.13
Fold-change AT4G09460 myb family transcription factor (30 min): 1.30
Fold-change AT4G12390 invertase/pectin methylesterase inhibitor family protein (30 min): 0.96
Fold-change AT4G12410 auxin-responsive family protein (30 min): 1.02
Fold-change AT4G14130 xyloglucan:xyloglucosyl transferase (30 min): 0.85
Fold-change AT4G15975 zinc finger (C3HC4-type RING finger) family protein (30 min): 1.10
Fold-change AT4G16146 expressed protein (30 min): 0.82
